According to US20100120752A1, “MUSCARINIC AGONISTS TO TREAT IMPULSE CONTROL DISORDERS” (Solvay Pharmaceuticals, B.V., priority 2007, published 2010):

How the values were obtained:
[1] = test system: MK801 induced increase of anticipatory responses of rats; assay: 5-Choice Serial Reaction Time task, interaction studies against MK801; assay type: in vivo, rat; details: ±SEM
Source text: (§1) Male Wistar rats weighing 330-450 g (Harlan, The Netherlands) were housed in pairs under a 12-h light/dark cycle (lights off at 7:00 a.m.) and had daily access to a limited amount of food that kept their body weight at approximately 85% of the free feeding weight. Water was available ad libitum. All procedures were in compliance with the European Communities Council Directive of Nov. 24, 1986 (86/609 EEC).
(§2) Standard 5-CSRT boxes from MED associates Inc. Georgia, Vt. US were used. The curved wall of the chamber contained five 1.6 cm2 holes, 2.2 cm deep, 2 cm above floor level. […] In every hole a yellow stimulus light was presented. A food dispenser was located at the opposite wall. The box was illuminated by a 28 Volt 100 mA house light. The 5-CSRT boxes were placed in sound attenuating cubicles. On-line control of the apparatus and data collection were performed by a MED-PC experimental apparatus programming system (Tatham, 1989), running on a Dell Optiplex GX1 PC.
(§3) Rats were first trained to collect reinforcement pellets from the food dispenser and to collect reinforcements that were placed in the 5 holes in order to habituate the animals to the 5-CSRT task apparatus. Next, training of the 5-CSRT task started. These sessions started by illumination of the light in one of the holes for 30 seconds (stimulus duration). A response by the rat into the illuminated hole or a response in that particular hole for a short period of time after the illumination (the limited hold 60 sec) was rewarded with the delivery of a food pellet, termination of the trial and a correct response was recorded. The light stimulus was presented in each of the holes 20 times during a session (total of 100 presentations), and the order of presentations was randomized. […] After termination of the trial a variable inter-trial interval was started (1, 3, 5, 7 or 9 sec) after which the next trial was started. Upon reaching a 75% correct performance level the duration of illumination of the light stimulus was reduced until a presentation of 0.5 sec (from 30 to 20, 10, 5, 2, 1, 0.9; 0.8; 0.7; 0.6; 0.5.) and a limited hold of 5 sec (in three steps from 30 to 20, 10 and 5 sec), was reached. (Robbins, 1993).
(§4) The following parameters were measured (Muir, 1996):
(§5) Accuracy: the percentage correct responses divided by the total responses made.
(§6) Errors of omission: the number of missed stimulus presentations.
(§7) Correct responses: the number of correct responses.
(§8) Fault responses: the number of responses in the wrong hole.
(§9) Anticipatory responses: the number of premature responses made preceding the presentation of the light stimulus.
(§10) Persevering responses: responses emitted after an incorrect or correct response.
Both xanomeline and desmethylclozapine were each tested in the same dose range against 0.05 mg/kg (s.c.) MK801, a dose shown to elicit unequivocal impulsive behavior (see Table 1).

Male Wistar rats = assay: 5-Choice Serial Reaction Time task, MK801 alone; assay type: in vivo, rat; details: for number of anticipatory responses / number of correct responses / number of fault responses / number of missed responses / percentage of correct responses / persevering responses / total number of responses: ±S.E.M.
Source text: as §1, §2, §3, §4, §5, §6, §7, §8, §9, §10
MK801 was tested in a Latin hexagon design, meaning that each rat received all test dosages (0, 0.01, 0.025 and 0.05 mg/kg s.c.) in a random order.

[2] = 0.05 mg/kg (s.c.) MK801 with 0 mg/kg desmethylclozapine
[3] = 0.05 mg/kg (s.c.) MK801 with 0 mg/kg xanomeline
[4] = evident at 0.025 mg/kg and 0.05 mg/kg, p<0.05
[5] = first series, MK801 0.01 mg/kg s.c.
[6] = first series, MK801 0.025 mg/kg s.c.
[7] = first series, MK801 0.05 mg/kg s.c.
[8] = second series, MK801 0.01 mg/kg s.c.
[9] = second series, MK801 0.025 mg/kg s.c.
[10] = second series, MK801 0.05 mg/kg s.c.

With `CC12NC(Cc3ccccc31)c1ccccc12` (centres unmarked) [MK801, dizocilpine] the “% correct responses” value [1, 2] was 66.2 ± 3.8%, the nr anticipatory resp [1, 2] was 116.8 ± 19.9 and the “nr of correct resp” value [1, 2] was 53.8 ± 4.4. For the same compound, the “nr of fault resp” value [1, 2] was 25.9 ± 2.1, the “nr of missed resp” value [1, 2] was 20.3 ± 3.7 and the persevering resp [1, 2] was 20.2 ± 3.2. The “total nr of resp” value [1, 2] was 79.7 ± 3.7, the “% correct resp” value [1, 3] was 66.9 ± 3.5% and the nr anticipatory resp [1, 3] was 133.8 ± 23.5. The “nr of correct resp” value [1, 3] was 53.3 ± 3.9, the “nr of fault resp” value [1, 3] was 25.9 ± 2.7 and the “nr of missed resp” value [1, 3] was 20.8 ± 3.4. For the same compound, the persevering resp [1, 3] was 16.9 ± 2.6, the “total nr of resp” value [1, 3] was 79.3 ± 3.4 and the “effect on missed responses” value (Male Wistar rats; [4]) was “decreased”. The “effect on number of anticipatory responses” value (Male Wistar rats; [4]) was “boosted”, the “effect on persevering responses” value (Male Wistar rats; [4]) was “boosted” and the “effect on total number of responses” value (Male Wistar rats; [4]) was “boosted”. The “number of anticipatory responses” value (Male Wistar rats; [5]) was 51.3 ± 5.4, the “number of correct responses” value (Male Wistar rats; [5]) was 52.6 ± 3.3 and the “number of fault responses” value (Male Wistar rats; [5]) was 19.8 ± 2.2. The “number of missed responses” value (Male Wistar rats; [5]) was 27.7 ± 3.3, the “percentage of correct responses” value (Male Wistar rats; [5]) was 72.6 ± 2.8% and the persevering responses (Male Wistar rats; [5]) was 7.9 ± 1. The “total number of responses” value (Male Wistar rats; [5]) was 72.3 ± 3.3, the “number of anticipatory responses” value (Male Wistar rats; [6]) was 73.2 ± 8.7 and the “number of correct responses” value (Male Wistar rats; [6]) was 53.8 ± 3.9. The “number of fault responses” value (Male Wistar rats; [6]) was 22.6 ± 2.7, the “number of missed responses” value (Male Wistar rats; [6]) was 23.6 ± 2.9 and the “percentage of correct responses” value (Male Wistar rats; [6]) was 70.0 ± 3.7%. The persevering responses (Male Wistar rats; [6]) was 17.7 ± 4.1, the “total number of responses” value (Male Wistar rats; [6]) was 76.4 ± 2.9 and the “number of anticipatory responses” value (Male Wistar rats; [7]) was 148.6 ± 38.6. For the same compound, the “number of correct responses” value (Male Wistar rats; [7]) was 55.3 ± 3.2^, the “number of fault responses” value (Male Wistar rats; [7]) was 26.0 ± 2.7^ and the “number of missed responses” value (Male Wistar rats; [7]) was 18.7 ± 3.1. For the same compound, the “percentage of correct responses” value (Male Wistar rats; [7]) was 68.0 ± 3%, the persevering responses (Male Wistar rats; [7]) was 28.2 ± 4.7 and the “total number of responses” value (Male Wistar rats; [7]) was 81.3 ± 3.1. For the same compound, the “number of anticipatory responses” value (Male Wistar rats; [8]) was 78.1 ± 14.8, the “number of correct responses” value (Male Wistar rats; [8]) was 60.8 ± 2.1 and the “number of fault responses” value (Male Wistar rats; [8]) was 21.8 ± 2.1. For the same compound, the “number of missed responses” value (Male Wistar rats; [8]) was 17.5 ± 2.1, the “percentage of correct responses” value (Male Wistar rats; [8]) was 73.8 ± 2.3% and the persevering responses (Male Wistar rats; [8]) was 11.1 ± 3.1. For the same compound, the “total number of responses” value (Male Wistar rats; [8]) was 82.5 ± 2.1, the “number of anticipatory responses” value (Male Wistar rats; [9]) was 97.3 ± 16.2 and the “number of correct responses” value (Male Wistar rats; [9]) was 62.7 ± 2.9. The “number of fault responses” value (Male Wistar rats; [9]) was 21.8 ± 1.9, the “number of missed responses” value (Male Wistar rats; [9]) was 15.6 ± 1.9 and the “percentage of correct responses” value (Male Wistar rats; [9]) was 74.0 ± 2.5%. For the same compound, the persevering responses (Male Wistar rats; [9]) was 10.7 ± 1.7, the “total number of responses” value (Male Wistar rats; [9]) was 84.4 ± 1.9 and the “number of anticipatory responses” value (Male Wistar rats; [10]) was 148.3 ± 29.8. For the same compound, the “number of correct responses” value (Male Wistar rats; [10]) was 62.3 ± 2.9^, the “number of fault responses” value (Male Wistar rats; [10]) was 23.3 ± 2.3^ and the “number of missed responses” value (Male Wistar rats; [10]) was 14.5 ± 1.8. The “percentage of correct responses” value (Male Wistar rats; [10]) was 72.7 ± 2.6^ %, the persevering responses (Male Wistar rats; [10]) was 18.8 ± 4.2 and the “total number of responses” value (Male Wistar rats; [10]) was 85.5 ± 1.8. The “effect on numbers of correct responses” value (Male Wistar rats; summary of table 1) was “does not influence” and the “effect on numbers of fault responses” value (Male Wistar rats; summary of table 1) was “does not influence”.
